Results published in the CheMixHub ionic liquid set.

Assay: xn = mol fraction of the nth substance listed

CCCC(=O)[O-].CC[NH+](CC)CCO + CCCC[n+]1ccn(C)c1.COP(=O)([O-])OC
101 kPa
Conditions | viscosity [mPa·s]
278.15 K, x1 = 0.8006 | 196.8
278.15 K, x1 = 1 | 189
283.15 K, x1 = 0.6001 | 182.3
283.15 K, x1 = 1 | 133.9
288.15 K, x1 = 0.1023 | 864
288.15 K, x1 = 0.6613 | 121.1
293.15 K, x1 = 0.3985 | 163.9
293.15 K, x1 = 0.498 | 123.1
293.15 K, x1 = 0.6001 | 99.4
293.15 K, x1 = 0.8788 | 74.2
298.15 K, x1 = 0.1989 | 264.3
303.15 K, x1 = 0.1989 | 194.8
303.15 K, x1 = 0.6001 | 58.8
308.15 K, x1 = 0.3985 | 73.2
313.15 K, x1 = 0.3026 | 78
313.15 K, x1 = 0.498 | 45.11
313.15 K, x1 = 0.6613 | 33.88
318.15 K, x1 = 0.1023 | 124.4
318.15 K, x1 = 0.6001 | 30.12
318.15 K, x1 = 0.8006 | 23.35
323.15 K, x1 = 0.1989 | 69.7
323.15 K, x1 = 0.6613 | 22.66
328.15 K, x1 = 0.6001 | 20.62
338.15 K, x1 = 0.6613 | 13.49
338.15 K, x1 = 0.8006 | 11.39
338.15 K, x1 = 1 | 9.73
343.15 K, x1 = 0.1989 | 31.59
343.15 K, x1 = 0.3985 | 18.82
343.15 K, x1 = 0.6001 | 12.63
348.15 K, x1 = 0.498 | 13.05
353.15 K, x1 = 0.3026 | 17.55
353.15 K, x1 = 0.8006 | 7.3
353.15 K, x1 = 0.8788 | 6.78
353.15 K, x1 = 1 | 6.11
358.15 K, x1 = 0.3985 | 12.24
358.15 K, x1 = 0.6613 | 7.62
358.15 K, x1 = 1 | 5.31
368.15 K, x1 = 0.3026 | 11.71
368.15 K, x1 = 1 | 4.09

CCCCCC(=O)O.CCCCCC(=O)[O-].CC[NH+](CC)CCO + CCCC[n+]1ccn(C)c1.COP(=O)([O-])OC
101 kPa
Conditions | viscosity [mPa·s]
278.15 K, x1 = 0.2213 | 768
278.15 K, x1 = 0.6088 | 295.3
283.15 K, x1 = 0.0684 | 1280
283.15 K, x1 = 0.4995 | 242.5
283.15 K, x1 = 0.7258 | 185.3
288.15 K, x1 = 0.2213 | 362
288.15 K, x1 = 0.3088 | 259.7
288.15 K, x1 = 1 | 100.1
293.15 K, x1 = 0.4995 | 130.7
293.15 K, x1 = 0.8535 | 90.5
298.15 K, x1 = 0.2213 | 190.1
298.15 K, x1 = 0.3088 | 140.8
303.15 K, x1 = 0.2213 | 142.4
303.15 K, x1 = 0.6088 | 68.7
303.15 K, x1 = 1 | 47.5
308.15 K, x1 = 0.1429 | 147.9
313.15 K, x1 = 0.0684 | 157
313.15 K, x1 = 0.3088 | 65.2
318.15 K, x1 = 0.3966 | 43.87
318.15 K, x1 = 0.8535 | 29.04
323.15 K, x1 = 0.3966 | 35.8
328.15 K, x1 = 0.4995 | 26.14
328.15 K, x1 = 1 | 17.75
338.15 K, x1 = 0.0684 | 48.21
338.15 K, x1 = 0.2213 | 30.03
338.15 K, x1 = 1 | 12.81
343.15 K, x1 = 0.0684 | 39.73
343.15 K, x1 = 0.2213 | 25.3
343.15 K, x1 = 0.3088 | 20.61
348.15 K, x1 = 1 | 9.52
353.15 K, x1 = 0.2213 | 18.5
353.15 K, x1 = 0.4995 | 11.83
353.15 K, x1 = 0.7258 | 10.11
353.15 K, x1 = 1 | 8.28
358.15 K, x1 = 0.2213 | 16.02
358.15 K, x1 = 1 | 7.24
368.15 K, x1 = 0.3966 | 9.02
373.15 K, x1 = 0.2213 | 10.88

OCCN(CCO)CCO + CCCC[n+]1ccn(C)c1.F[B-](F)(F)F
Conditions | viscosity [mPa·s]
303.15 K, 101 kPa, x1 = 1 | 400

c1ccsc1 + CCCC[n+]1ccn(C)c1.N#C[S-]
100 kPa, x1 = 1
Conditions | viscosity [mPa·s]
298.15 K | 0.655
308.15 K | 0.585
318.15 K | 0.525
328.15 K | 0.47
